Test results published in US6274715A, “Tricyclic erythromycin derivatives” (priority 1997, dated 2001).
In brackets after ≈: the same amount, converted by molar mass.

Legend:
Assay type in all cases: cell-based
[1] = system: STAPHYLOCOCCUS AUREUS A-5278; assay: In vitro antibacterial activity, MIC, BHI agar dilution; settings: S. aureus A-5278, unit assumed
[2] = system: STREPTOCOCCUS BOVIS A-5169; assay: as above; settings: S. bovis A-5169, unit assumed
[3] = system: ENTEROBACTER AEROGENES ATCC 13048; assay: as above; settings: E. aerogenes ATCC 13048, unit assumed
[4] = system: STAPHYLOCOCCUS AUREUS A5177; assay: as above; settings: S. aureus A5177, unit assumed
[5] = system: PROVIDENCIA STUARTII CMX 640; settings: P. stuartii CMX 640; BHI agar; unit assumed
[6] = system: MYCOBACTERIUM SMEGMATIS ATCC 114; assay: In vitro antibacterial activity, MIC, BHI agar dilution; settings: M. smegmatis ATCC 114, unit assumed
[7] = system: ESCHERICHIA COLI DC-2; assay: as above; settings: E. coli DC-2, unit assumed
[8] = system: PSEUDOMONAS AERUGINOSA K799/61; assay: as above; settings: P. aeruginosa K799/61, unit assumed
[9] = system: PSEUDOMONAS AERUGINOSA DPHD-5263; assay: as above; settings: P. aeruginosa DPHD-5263, unit assumed
[10] = system: STAPHYLOCOCCUS AUREUS ATCC 6538P; assay: as above; settings: S. aureus ATCC 6538P, 35-37° C., 20 to 24 hours, unit assumed
[11] = system: STREPTOCOCCUS PYOGENES 930; assay: as above; settings: S. pyogenes 930, unit assumed
[12] = system: STREPTOCOCCUS PYOGENES EES61; assay: as above; settings: S. pyogenes EES61, unit assumed
[13] = system: PSEUDOMONAS AERUGINOSA 5007; assay: as above; settings: P. aeruginosa 5007, unit assumed
[14] = system: M[…] ATCC 4698; assay: as above; settings: M. luteus ATCC 4698, unit assumed
Method: (§1) Representative compounds of the present invention were assayed in vitro for antibacterial activity as follows: Twelve petri dishes containing successive aqueous dilutions of the test compound mixed with 10 mL of sterilized Brain Heart Infusion (BHI) agar (Difco 0418-01-5) were prepared. Each plate was inoculated with 1:100 (or 1:10 for slow-growing strains, such as Micrococcus and Streptococcus) dilutions of up to 32 different microorganisms, using a Steers replicator block. The inoculated plates were incubated at 35-37° C. for 20 to 24 hours. In addition, a control plate, using BHI agar containing no test compound, was prepared and incubated at the beginning and end of each test.
(§2) An additional plate containing a compound having known susceptibility patterns for the organisms being tested and belonging to the same antibiotic class as the test compound was also prepared and incubated as a further control, as well as to provide test-to-test comparability. Erythromycin A was used for this purpose.
(§3) After incubation, each plate was visually inspected. The minimum inhibitory concentration (MIC) was defmed as the lowest concentration of drug yielding no growth, a slight haze, or sparsely isolated colonies on the inoculum spot as compared to the growth control.

[15] = system: EN[…] ATCC 8043; assay: as above; settings: E. faecium ATCC 8043, unit assumed
Method: as §1, §2, §3

[16] = system: M[…] ATCC 9341; assay: as above; settings: M. luteus ATCC 9341, unit assumed
Method: as §1, §2, §3

[17] = system: STR[…] 508; assay: as above; settings: S. agalactiae CMX 508, unit assumed
Method: as §1, §2, §3

[18] = system: ESCHERICHIA COLI H560; assay: as above; settings: E. coli H560, unit assumed
[19] = system: ESCHERICHIA COLI JUHL; settings: E. coli JUHL; BHI agar; unit assumed
[20] = system: STAPHYLOCOCCUS EPIDERMIDIS 3519; settings: S. epidermidis 3519; BHI agar; unit assumed
[21] = system: PSEUDOMONAS AERUGINOSA K799/WT; assay: In vitro antibacterial activity, MIC, BHI agar dilution; settings: P. aeruginosa K799/WT, unit assumed
[22] = system: STAPHYLOCOCCUS AUREUS CMX 642A; assay: as above; settings: S. aureus CMX 642A, unit assumed
[23] = system: STAPHYLOCOCCUS AUREUS CMX 553; assay: as above; settings: S. aureus CMX 553, unit assumed
[24] = system: PSEUDOMONAS AERUGINOSA DPHD-2862; assay: as above; settings: P. aeruginosa DPHD-2862, unit assumed
[25] = system: KLEBSIELLA PNEUMONIAE ATCC 8045; assay: as above; settings: K. pneumoniae ATCC 8045, unit assumed
[26] = system: STAPHYLOCOCCUS AUREUS 1775; assay: as above; settings: S. aureus 1775, unit assumed
[27] = system: STAPHYLOCOCCUS AUREUS NCTC10649M; assay: as above; settings: S. aureus NCTC10649M, unit assumed
[28] = system: CANDIDA ALBICANS CCH 442; assay: as above; settings: C. albicans CCH 442, unit assumed
[29] = system: PSEUDOMONAS AERUGINOSA BMH10; assay: as above; settings: P. aeruginosa BMH10, unit assumed
[30] = system: PSEUDOMONAS CEPACIA 296I; assay: as above; settings: P. cepacia 296I, unit assumed
[31] = system: ESCHERICHIA COLI KNK 437; settings: E. coli KNK 437; BHI agar; unit assumed

| Compound | MIC [1] [µg/mL] | MIC [2] [µg/mL] | MIC [3] [µg/mL] | MIC [4] [µg/mL] | MIC [5] [µg/mL] | MIC [7] [µg/mL] | MIC [8] [µg/mL] | MIC [9] [µg/mL] | MIC [10] [µg/mL] | MIC [11] [µg/mL] | MIC [12] [µg/mL] | MIC [13] [µg/mL] | MIC [14] [µg/mL] | MIC [15] [µg/mL] | MIC [16] [µg/mL] | MIC [17] [µg/mL] | MIC [18] [µg/mL] | MIC [19] [µg/mL] | MIC [20] [µg/mL] | MIC [21] [µg/mL] | also measured |
| --- | --- | --- | --- | --- | --- | --- | --- | --- | --- | --- | --- | --- | --- | --- | --- | --- | --- | --- | --- | --- | --- |
| CC[C@H]1OC(=O)[C@H](C)C(=O)[C@H](C)[C@@H](O[C@@H]2O[C@H](C)C[C@H](N(C)C)[C@H]2O)[C@](C)(OC)C[C@@H](C)C2=N[C@H](Cc3ccccc3)CN3C(=O)O[C@@]1(C)[C@H]3[C@H]2C [Example 3] | > 100 | 0.02 (≈ 0.0275 µM) | > 100 | 0.39 (≈ 0.536 µM) | > 100 | > 100 | 3.1 (≈ 4.26 µM) | > 100 | 0.39 (≈ 0.536 µM) | 100 (≈ 137 µM) | 0.01 (≈ 0.0137 µM) | > 100 | 0.39 (≈ 0.536 µM) | 0.05 (≈ 0.0687 µM) | 0.1 (≈ 0.137 µM) | 0.01 (≈ 0.0137 µM) | > 100 | > 100 | 0.39 (≈ 0.536 µM) | > 100 | MIC [6]: > 100 µg/mL; MIC [22]: 0.39 µg/mL (≈ 0.536 µM); MIC [23]: 0.39 µg/mL (≈ 0.536 µM); MIC [24]: > 100 µg/mL; MIC [25]: > 100 µg/mL; MIC [26]: > 100 µg/mL; MIC [27]: 0.39 µg/mL (≈ 0.536 µM); MIC [28]: > 100 µg/mL; MIC [29]: > 100 µg/mL; MIC [30]: > 100 µg/mL; MIC [31]: > 100 µg/mL |
| CC[C@H]1OC(=O)[C@H](C)C(=O)[C@H](C)[C@@H](O[C@@H]2O[C@H](C)C[C@H](N(C)C)[C@H]2O)[C@](C)(OC)C[C@@H](C)C2=N[C@@H](Cc3ccccc3)CN3C(=O)O[C@@]1(C)[C@H]3[C@H]2C [Example 4] | > 100 | 0.02 (≈ 0.0275 µM) | 100 (≈ 137 µM) | 0.2 (≈ 0.275 µM) | > 100 | 100 (≈ 137 µM) | 1.56 (≈ 2.14 µM) | > 100 | 0.2 (≈ 0.275 µM) | > 100 | 0.05 (≈ 0.0687 µM) | > 100 | 0.39 (≈ 0.536 µM) | 0.1 (≈ 0.137 µM) | 0.1 (≈ 0.137 µM) | 0.005 (≈ 0.00687 µM) | 25 (≈ 34.3 µM) | > 100 | 0.78 (≈ 1.07 µM) | > 100 | MIC [22]: 0.78 µg/mL (≈ 1.07 µM); MIC [23]: 0.78 µg/mL (≈ 1.07 µM); MIC [24]: > 100 µg/mL; MIC [25]: > 100 µg/mL; MIC [26]: > 100 µg/mL; MIC [27]: 0.78 µg/mL (≈ 1.07 µM); MIC [28]: 100 µg/mL (≈ 137 µM); MIC [29]: > 100 µg/mL; MIC [30]: > 100 µg/mL; MIC [31]: > 100 µg/mL |
